What all share (assay type): cell-based
Experiment [1] has as its system Oocyte. Nature of the experiment: Modulatory activity at GABAA alpha1/beta2/gamma2L (unknown origin) expressed in Xenopus laevis oocyte assessed as chloride current at 1 to 100 uM. The settings on record: Homo sapiens, dose 1-100 µM.
Experiment [2] has as its system Oocyte. Nature of the experiment: Antagonist activity at GABAA alpha1/beta2/gamma2L (unknown origin) expressed in Xenopus laevis oocyte assessed as reduction in lorazepam-induced chloride current at 100 uM relative to control. The arrangement: scale not given: the % may be the effect or the level left. The settings on record: Homo sapiens, filed as antagonist.
In experiment [3] the test system is Oocyte. Nature of the experiment: Agonist activity at GABAA alpha1/beta2/gamma2L (unknown origin) expressed in Xenopus laevis oocyte assessed as increase in chloride current at 30 uM relative to control. The note with it: Homo sapiens, filed as agonist.
Experiment [4] has as its system Oocyte. Nature of the experiment: Inverse agonist activity at GABAA alpha1/beta2/gamma2L (unknown origin) expressed in Xenopus laevis oocyte assessed as reduction in chloride current at 30 uM relative to control. More on the design: scale not given: the % may be the effect or the level left. The note with it: Homo sapiens.
Experiment [5] relates to Oocyte. Nature of the experiment: Inverse agonist activity at GABAA alpha1/beta2/gamma2L (unknown origin) expressed in Xenopus laevis oocyte assessed as reduction in chloride current at 100 uM relative to control. The arrangement: scale not given: the % may be the effect or the level left. The settings on record: Homo sapiens, filed as inverse agonist.

The source made the active and inactive calls. No cut-off for these calls is given here.

For the molecule `COc1ccc2cnc3c(C(=O)NCc4ccccc4)cnn3c2c1`, in the experiment on Oocyte [1], the result was inactive. The outcome in the experiment on Oocyte [2] was Active.

With `COc1ccc2c(c1)-n1ncc(C(=O)NCC3CCCCC3)c1NC2`, in the experiment with Oocyte [1], the outcome was inactive. The result with Oocyte [2] was Active.

Take `COc1ccc2cnc3c(C(=O)NCc4ccccc4OC)cnn3c2c1`: the outcome with Oocyte [1] was inactive. In the experiment on Oocyte [2], the outcome was Active. On to `COc1ccc2cnc3c(C(=O)Nc4ccccc4)cnn3c2c1`, for which the Activity in the experiment on Oocyte [3] came to 34%. `COc1ccc2cnc3c(C(=O)NC(C)C)cnn3c2c1`: in the experiment on Oocyte [1], the outcome was inactive. The result with Oocyte [2] was Active.

Consider `COc1ccc2cnc3c(C(=O)NCC4CCCCC4)cnn3c2c1`, for which the result with Oocyte [1] was inactive. Moreover, the outcome in the experiment on Oocyte [2] was Active. Consider `COc1ccc2c(c1)-n1ncc(C(N)=O)c1NC2`, for which, in the experiment on Oocyte [1], the result was inactive. Further, the result in the experiment with Oocyte [2] was Active.

In the case of `COc1ccc2c(c1)-n1ncc(C(=O)NCc3ccccc3)c1NC2`, the outcome in the experiment on Oocyte [1] was inactive. Besides, the result in the experiment on Oocyte [2] was Active. For `COc1ccc2c(c1)-n1ncc(C(=O)NC(C)C)c1NC2` the same measures were “inactive” and 90%.

For `COc1ccc2cnc3c(C(=O)NCc4cccs4)cnn3c2c1`, the Activity with Oocyte [3] was found to be 34%. Consider `COc1ccc2c(c1)-n1ncc(C(=O)NCc3ccccc3OC)c1NC2`, for which the result in the experiment with Oocyte [1] was inactive. For the same molecule, the outcome in the experiment with Oocyte [2] was Active. For `COc1ccc2c(c1)-n1ncc(C(=O)NC3CCCCC3)c1NC2` the same measures were “inactive” and “Active”. Regarding `COc1ccc2cnc3c(C(=O)NCc4ccco4)cnn3c2c1`, the result with Oocyte [3] was Active. On the same count and under the same terms, the figure for `COc1ccc2c(c1)-n1ncc(C(=O)Nc3ccccc3)c1NC2` is 34%; for `COc1ccc2c(c1)-n1ncc(C(=O)NCc3ccco3)c1NC2` it is “Active”. `COc1ccc2cnc3c(C(N)=O)cnn3c2c1`: the outcome with Oocyte [1] was inactive. Further, the result with Oocyte [2] was Active. For the molecule `COc1ccc2cnc3c(C(=O)NC4CCCCC4)cnn3c2c1`, the results for the Activity in the experiment on Oocyte [4] and with Oocyte [5] were 19% and 49%, respectively.

Values taken from ChEMBL document CHEMBL4680323, “'Proximity frequencies' a new parameter to evaluate the profile of GABAR modulators” (Bioorg Med Chem Lett, 2021).
